Test results: patent publication US9540345B2, “Antiviral compounds” (priority 2013, dated 2017)

How the values were obtained:
[1] = tested on: pseudotyped VSV G particles (VSVpp); experiment: microbe, parasite or virus in culture; format: cell-based, vesicular stomatitis virus; conditions: Vesicular stomatitis virus, 72 h, read-out: VSVpp (EC50, μM)
[2] = tested on: pseudotyped HCV GT1b particles (HCVpp); experiment: microbe, parasite or virus in culture; format: cell-based, HCV GT1b Con1 strain; conditions: Hepatitis C virus, GT1B, 72 h, read-out: HCVpp GT-1b (EC50, μM)

| SMILES | EC50 [1] [µM] | EC50 [2] [µM] |
| --- | --- | --- |
| CC(C)(C)OC(=O)N1CC=C(c2c(Cl)cc(Nc3n[nH]c(N)n3)cc2Cl)CC1 [Compound 18, tert-Butyl 4-(4-(5-amino-1H-1,2,4-triazol-3-ylamino)-2,6-dichlorophenyl)-5,6-dihydropyridine-1(2H)-carboxylate] | ≥ 10 | 0.088 |
| Nc1n[nH]c(Nc2cc(F)c(-c3ccc(F)nc3)c(C(F)(F)F)c2)n1 [Compound 9, N^5-(3-Fluoro-4-(6-fluoropyridin-3-yl)-5-trifluoromethylphenyl)-1H-[1,2,4]-triazole-3,5-diamine] | 31.1 | 0.998 |
| Nc1nc(Nc2cc(Cl)c(-c3cc[nH]n3)c(Cl)c2)n[nH]1 [Compound 38, N-3-[3,5-Dichloro-4-(1H-pyrazol-3-yl)-phenyl]-1H-[1,2,4]triazole-3,5-diamine] | 35.8 | 3.39 |
| NCC1(CO)CN(c2c(Cl)cc(Nc3nc(N)n[nH]3)cc2Cl)C1 [Compound 13, {3-Aminomethyl-1-[4-(5-amino-2H-[1,2,4]triazol-3-ylamino)-2,6-dichlorophenyl]-azetidin-3-yl}-methanol] | ≥ 10 | 10 |
| COc1ncc(-c2c(Cl)cc(Nc3n[nH]c(N)n3)cc2Cl)cn1 [Compound 40, N-3-[3,5-Dichloro-4-(2-methoxy-pyrimidin-5-yl)-phenyl]-1H-[1,2,4]triazole-3,5-diamine] | 3.3 | 0.52 |
